Reference: US7390806B2, “Antibiotics containing borinic acid complexes and methods of use” (Anacor Pharmaceuticals, Inc., priority 2002, dated 2008)
Converted amounts (≈) assume the structure as drawn. Read-outs that look alike come from different tables or passages of the source.

Assays:
S. aureus ATCC 29213 = assay: MIC determination, S. aureus ATCC 29213; format: cell-based, Staphylococcus aureus; details: for MIC: Staphylococcus aureus, read-out: MIC S. aureus ATCC 29213; for MIC S. aureus ATCC 29213: Table 1
[1] = system: S. epidermidis ATCC 12228; assay: MIC determination, S. epidermidis ATCC 12228; format: cell-based, Staphylococcus epidermidis; details: for MIC: Staphylococcus epidermidis, read-out: MIC S. epidermidis ATCC 12228; for MIC S. epidermidis ATCC 12228: Table 1
E. faecalis ATCC 29212 = assay: MIC determination, E. faecalis ATCC 29212; format: cell-based, Enterococcus faecalis; details: for MIC: Enterococcus faecalis, read-out: MIC E. faecalis ATCC 29212; for MIC E. faecalis ATCC 29212: Table 1
H. influenzae ATCC 49766 = assay: MIC determination, H. influenzae ATCC 49766; format: cell-based, Haemophilus influenzae; details: Haemophilus influenzae, ATCC49766; Table 2
S. pneumoniae ATCC 6301 = assay: MIC determination, S. pneumoniae ATCC 6301; format: cell-based, Streptococcus pneumoniae; details: for MIC S. pneumoniae ATCC 6301: Table 1
E. faecium CT-26 = assay: MIC determination, E. faecium CT-26; format: cell-based, Enterococcus faecium; details: for MIC E. faecium CT-26: Table 1
[2] = system: M. catarrhalis ATCC 25238; assay: MIC determination, M. catarrhalis ATCC 25238; format: cell-based; details: for MIC M. catarrhalis ATCC 25238: Table 1

MIC (S. aureus ATCC 29213; ATCC29213, Table 1) [µg/mL]	MIC (S. aureus ATCC 29213; ATCC29213, Table 2) [µg/mL]	MIC ([1]; ATCC12228, Table 1) [µg/mL]	MIC ([1]; ATCC12228, Table 2) [µg/mL]	MIC (E. faecalis ATCC 29212; ATCC29212, Table 1) [µg/mL]	MIC (E. faecalis ATCC 29212; ATCC29212, Table 2) [µg/mL]	MIC (H. influenzae ATCC 49766) [µg/mL]	MIC (S. pneumoniae ATCC 6301; Streptococcus pneumoniae, ATCC6301, Table 1, read-out: MIC S. pneumoniae ATCC 6301) [µg/mL]	MIC (E. faecium CT-26; Enterococcus faecium, CT26, Table 1, read-out: MIC E. faecium CT-26) [µg/mL]	MIC ([2]; Moraxella catarrhalis, ATCC25238, Table 1, read-out: MIC M. catarrhalis ATCC 25238) [µg/mL]	Compound	MIC S. aureus ATCC 29213 (S. aureus ATCC 29213) [micrograms per ml]	MIC S. epidermidis ATCC 12228 [1] [micrograms per ml]	MIC S. pneumoniae ATCC 6301 (S. pneumoniae ATCC 6301) [micrograms per ml]	MIC E. faecalis ATCC 29212 (E. faecalis ATCC 29212) [micrograms per ml]	MIC E. faecium CT-26 (E. faecium CT-26) [micrograms per ml]	MIC M. catarrhalis ATCC 25238 [2] [micrograms per ml]
0.5 (≈ 0.681 µM)	0.5 (≈ 0.681 µM)	0.5 (≈ 0.681 µM)	0.5 (≈ 0.681 µM)	2 (≈ 2.73 µM)	2 (≈ 2.73 µM)	4 (≈ 5.45 µM)	–	–	–	CC[C@H]1OC(=O)[C@H](C)[C@@H](O[C@H]2C[C@@](C)(OC)[C@@H](O)[C@H](C)O2)[C@H](C)[C@@H](O[C@@H]2O[C@H](C)C[C@H](N(C)C)[C@H]2O)[C@](C)(O)C[C@@H](C)C(=O)[C@H](C)[C@@H](O)[C@]1(C)O [Erythromycin, reference compound]	–	–	–	–	–	–
0.06 (≈ 0.156 µM)	0.06 (≈ 0.156 µM)	0.06 (≈ 0.156 µM)	0.06 (≈ 0.156 µM)	2 (≈ 5.22 µM)	2 (≈ 5.22 µM)	0.06 (≈ 0.156 µM)	–	–	–	C[C@@H](O)[C@H]1C(=O)N2C(C(=O)O)=C(S[C@@H]3CN[C@H](C(=O)N(C)C)C3)[C@H](C)[C@H]12 [Meropenem, reference compound]	–	–	–	–	–	–

Second part, the compound before the results:

Compound	MIC (S. aureus ATCC 29213; ATCC29213, Table 1) [µg/mL]	MIC (S. aureus ATCC 29213; ATCC29213, Table 2) [µg/mL]	MIC ([1]; ATCC12228, Table 1) [µg/mL]	MIC ([1]; ATCC12228, Table 2) [µg/mL]	MIC (E. faecalis ATCC 29212; ATCC29212, Table 1) [µg/mL]	MIC (E. faecalis ATCC 29212; ATCC29212, Table 2) [µg/mL]	MIC (H. influenzae ATCC 49766) [µg/mL]	MIC (S. pneumoniae ATCC 6301; Streptococcus pneumoniae, ATCC6301, Table 1, read-out: MIC S. pneumoniae ATCC 6301) [µg/mL]	MIC (E. faecium CT-26; Enterococcus faecium, CT26, Table 1, read-out: MIC E. faecium CT-26) [µg/mL]	MIC ([2]; Moraxella catarrhalis, ATCC25238, Table 1, read-out: MIC M. catarrhalis ATCC 25238) [µg/mL]	MIC S. aureus ATCC 29213 (S. aureus ATCC 29213) [micrograms per ml]	MIC S. epidermidis ATCC 12228 [1] [micrograms per ml]	MIC S. pneumoniae ATCC 6301 (S. pneumoniae ATCC 6301) [micrograms per ml]	MIC E. faecalis ATCC 29212 (E. faecalis ATCC 29212) [micrograms per ml]	MIC E. faecium CT-26 (E. faecium CT-26) [micrograms per ml]	MIC M. catarrhalis ATCC 25238 [2] [micrograms per ml]
Oc1cccc2cccnc12 [Compound 68, 8-hydroxyquinoline]	–	–	–	–	–	–	–	–	–	–	2	2	16	32	4	0.12
Cc1ccnc2c(O)cccc12 [Compound 67]	–	–	–	–	–	–	–	–	–	–	2	1	1	64	4	0.5
Oc1cccc2cccnc12 [Compound 74, 8-hydroxyquinoline]	–	–	–	–	–	–	–	–	–	–	2	1	2	32	2	1
Cc1ccnc2c(O)cccc12 [Compound 14]	–	–	1 (≈ 6.28 µM)	–	64 (≈ 402 µM)	–	–	1 (≈ 6.28 µM)	4 (≈ 25.1 µM)	0.5 (≈ 3.14 µM)	0.125	–	–	–	–	–
Cc1ccnc2c(O)cccc12 [Compound 66]	–	–	–	–	–	–	–	–	–	–	2	1	1	64	4	0.5
Oc1cccc2cccnc12 [Compound 37, 8-hydroxyquinoline]	–	–	–	–	–	–	–	–	–	–	1	1	1	8	2	1
Oc1cccc2cccnc12 [Compound 91, 8-hydroxyquinoline]	–	–	–	–	–	–	–	–	–	–	2	1	2	8	2	1
Oc1cccc2cccnc12 [Compound 32, 8-hydroxyquinoline]	–	–	–	–	–	–	–	–	–	–	1	1	1	16	2	2
Oc1c(Cl)cc(Cl)c2cccnc12 [Compound 71]	–	–	–	–	–	–	–	–	–	–	2	2	8	64	4	0.12
